# In patent publication US20080287377A1, “Composition Based on Triethyl Citrate for the Prevention of Enzymatic Hydrolysis of Triglycerides” (priority 2005, published 2008):
# Structures can show the parent of a compound that is named as a salt.
# Target: T1, porcine lipase (Sus scrofa, UniProt P00591)
# T1 sequence (P00591 1-450): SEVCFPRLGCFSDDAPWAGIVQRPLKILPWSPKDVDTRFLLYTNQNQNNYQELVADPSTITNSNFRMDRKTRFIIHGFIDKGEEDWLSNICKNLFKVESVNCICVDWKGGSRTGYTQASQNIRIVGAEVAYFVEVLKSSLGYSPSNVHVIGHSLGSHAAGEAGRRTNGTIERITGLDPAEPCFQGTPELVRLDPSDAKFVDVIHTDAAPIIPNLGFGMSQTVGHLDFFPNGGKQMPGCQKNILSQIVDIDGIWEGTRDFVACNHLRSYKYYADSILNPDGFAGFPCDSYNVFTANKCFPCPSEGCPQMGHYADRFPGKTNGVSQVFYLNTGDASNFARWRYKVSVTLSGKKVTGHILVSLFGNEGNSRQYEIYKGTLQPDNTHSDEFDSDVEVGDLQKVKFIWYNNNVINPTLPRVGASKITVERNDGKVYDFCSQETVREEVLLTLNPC
# Test: Inhibition of the lyses of triglycerides (olive oil) by porcine lipase, colorimetric test of released fatty acids
# Assay type: biochemical
# Settings: for Absorbance Mean: 37° C., read at 546 nm
# Description: The inhibition of the lyses of triglycerides in the presence of porcine lipase was evaluated by analysing the released fatty acids using a colorimetric test.
# The test consists in two distinct phases, one enzymatic reaction test which enables the lyses of triglycerides to leave the olive oil in the presence of porcine lipase and, successively, a colorimetric essay to determine the released fatty acids formed.
# The porcine lipase, in the presence of the substrata (olive oil) and in opportune incubation conditions, catalyzes the following reaction:
# Triglycerides+H2O→Diglycerides+Fatty acids
# The dose of fatty acids allows indirect evaluation of the enzymatic activity and the lyses of triglycerides.
# To evacuate the inhibition activity of the substance being analysed, three different concentrations of the substance under examination (5%, 1% and 0.5% in water) were tested at two different times (15 and 30 minutes).
# In order to allow complete solubility, the 5% concentration was left at room temperature for 72 hours.
# The porcine lipase was dissolved in deionised water at 4° C. just before use at the concentrations of 2000 U/ml. As a source of triglycerides olive oil was used. The buffer used for the reaction is Tris HCl 200 mM, pH=7.7 at 37° C. The test was conducted in the presence and in the absence of substance to be tested at different concentrations.
# The following reagents are incubated at 37° C.: deionised water (150 μL), buffer (100 μL), olive oil (300 μL).
# In the case of the sample (TEC 5%, 1% and 0.5%), the water was substituted with 150 μL of the solution to be tested.
# Subsequent, the enzymatic solution (200 μL) was added and the reaction was allowed to develop for 30 and 15 minutes at a temperature of 37° C. On termination of the 15 and 30 minute periods, the reaction was blocked by adding 300 μL of ethanol at 95%.
# 50 μL of the solution containing the released fatty acids formed are used for the calorimetric dose, carried out using the special kit, that provides the necessary reagents to develop the reaction described below.
# In the presence of the Acyl-CoA enzyme synthesis (AcylCS) and adenosin-5′-triphosphate (ATP) the released fatty acids are converted into acyl-CoA, adenosin-5′-monophosphate (AMP) and pyrophosphate. Acyl-CoA reacts with oxygen (O2) in the presence of Acyl coA oxidase (ACOD) forming 2,3-enoylcoenzymeA. The resulting H202 converts the 2,4,6-tribromo-3-hydroxy-benzoic acid (TBHB) and the 4-aminoantipyrine (4-AA) into a red stain in the presence of peroxidase (POD).
# The samples are read at the 546 nm wave length, before and after the addition of ACOD and the reaction is conducted at room temperature.
# Fatty acids+CoA+ATP→acyl-CoA+AMP+pyrophosphate
# Acyl-CoA+O2→enoyl-coA+H202
# [1] = TEC 0.5% in water, 15 min reaction
# [2] = TEC 0.5% in water, 30 min reaction
# [3] = TEC 1% in water, 15 min reaction
# [4] = TEC 1% in water, 30 min reaction
# [5] = TEC 5% in water, 15 min reaction
# [6] = TEC 5% in water, 30 min reaction
structure (smiles),measurement,setting,value
"CCOC(=O)CC(O)(CC(=O)OCC)C(=O)OCC [TEC, triethyl citrate]",fatty acids reduction compared to control (%),[1],18.04%
same,Absorbance Mean,[1],0.584
same,fatty acids reduction compared to control (%),[2],11.10%
same,Absorbance Mean,[2],0.084
same,fatty acids reduction compared to control (%),[3],17.12%
same,Absorbance Mean,[3],0.5905
same,fatty acids reduction compared to control (%),[4],12.70%
same,Absorbance Mean,[4],0.083
same,fatty acids reduction compared to control (%),[5],44.84%
same,Absorbance Mean,[5],0.393
same,fatty acids reduction compared to control (%),[6],81.50%
same,Absorbance Mean,[6],0.018
same,protection of the triglycerides from the enzymatic hydrolysis exercised by the lipases,"maximum percentage according to the method followed, from the absorbance values",up to 85%
